Reference: article PMC9146163, “Novel Au Carbene Complexes as Promising Multi-Target Agents in Breast Cancer Treatment” (Pharmaceuticals, 2022)

Key:
[1] = LogP determination (1-octanol/water, UV/vis); assay type: physicochemical; details: log[complex]oct/[complex]H2O, 55 μM, UV-Vis
Description: The logarithm of the partition coefficient (LogP) was evaluated by making a slight modification to the procedure reported in ref. [79]. Equal volumes of 1-octanol and water (distilled after milli-Q purification) were stirred for 20 h at room temperature. Then, they were separated to give 1-octanol-saturated water and water-saturated 1-octanol. Six (10, 20, 40, 50, 60 and 100 μM) standard concentrations of the compounds were prepared from the water-saturated 1-octanol. Analysis using UV/vis spectroscopy was used to obtain a calibration curve of absorbance vs. concentration. For each complex, a solution was prepared in the water-saturated 1-octanol (55 μM) and an equal volume of 1-octanol-saturated water was added. The solutions (biphasic) were mixed for 15 min and then centrifuged for 1h at 6500 rpm to allow separation.
Concentration in water-saturated 1-octanol was determined by UV-Vis spectroscopy. Reported LogP is defined as log[complex]oct/[complex]H2O.

[2] = system: vimentin in MCF-10A cells; test: Vimentin expression (immunofluorescence, Western blot), MCF-10A; assay type: cell-based, human; details: IC50 values, 24 h; immunofluorescence and Western blot quantification
Description: (§1) The MitoTracker Deep Red FM probe (MitoTracker Mitochondrion-Selective Probes, Invitrogen European Headquarters, Paisley, PA4 9RF, UK) was used for mitochondrial staining, as previously described. For immunofluorescence analysis, the cells were seeded and further processed, as reported by Iacopetta et al.. The primary antibodies used were: rabbit anti-β-Actin and vimentin (Santa Cruz Biotechnology, Dallas, TX, USA), mouse anti cytochrome c and NF-κB p65 (Abcam, Cambridge, UK), diluted 1:100 in bovine serum albumin (BSA) 2% overnight at 4 °C. The secondary antibodies were: Alexa Fluor® 488 conjugate goat-anti-rabbit and Alexa Fluor® 568 conjugate goat-anti-mouse (Thermo Fisher Scientific, MA, USA), diluted 1:500 and incubated for 2h at 37 °C. DAPI 0.2 μg/mL (Sigma Aldrich, Milan, Italy) was used for nuclei staining. […] All the images were acquired and processed using the LAS-X software.
Protein lysates underwent the SDS-PAGE process, as already defined. […]
(CTRL) for 24 h. After treatment, the cells were further processed, observed and imaged under the inverted fluorescence microscope at 20x m agnification (for mo re details see Materi als and M ethods). […]
and processed as reported in the Experimental Section. […] (d) Western blots quantification carried out using […]

[3] = system: MCF-7 cells; test: MTT assay, MCF-7; assay type: cell-based, human; details: MTT, 72 h; mean ± SD; read-out: IC50 MCF-7
Description: The five employed cell lines were purchased from American Type Culture Collection (ATCC, Manassas, VA, USA) and maintained as already reported. MCF-7, MDA-MB-231, MCF-10A and Hek-293 were cultured, as indicated by Iacopetta et al.. SkBr3 cells were maintained in DMEM high glucose, supplemented with 10% FBS and 100 μg/mL penicillin/streptomycin.
MTT assays [Sigma Aldrich (St.Louis, MO, USA)] were used in order to determine the in vitro anticancer activities of all the target compounds, as already reported.The compounds were tested at different concentrations (0.1-1-10-20-40 µM) for 72 h. Results are represented as percent (%) of basal and the IC50 values were calculated using GraphPad Prism 9 (GraphPad Software, La Jolla, CA, USA).

[4] = target: T1, Labeled Rabbit Muscle Actin (Oryctolagus cuniculus, UniProt P68135); test: In vitro actin polymerization assay; assay type: biochemical; details: 5 µM
T1 construct: purchased Abcam (Actin Polymerization/Depolymerization Assay Kit)
Description: The ability of the tested compounds to interfere with the actin polymerization and depolymerization reaction was measured using an Actin Polymerization/Depolymerization Assay Kit purchased from Abcam, following the manufacturer’s instructions. […] For the polymerization assay, reconstituted actin was mixed with supplemented Buffer G and samples in a white 96-well plate and then the polymerization reaction was induced with the addition of the Buffer P supplemented with 10 mM ATP. The solution was mixed and the data acquisition started. For the Actin Depolymerization Assay, supplemented Buffers P and G were mixed and incubated in a white 96-well plate at room temperature for one hour to polymerize the actin, protected from light. Then samples were added and the data acquisition started. Latrunculin A and Cytochalasin B were used as control molecules at a concentration of 5 μM. For both the assays, the assembly of actin filaments was determined by measuring the fluorescence (Ex/Em: 365/410 nm) in kinetic mode for 1 h at room temperature using a microplate reader.

[5] = system: NF-κB in MCF-10A cells; test: NF-κB immunofluorescence, MCF-10A; assay type: cell-based, human
Description: as §1
L: Figure S6. NF-κB expression in MCF-10A cells
CTRL cells and in the cells exposed to compounds 1 and 6 NF-κB is localized within the cytoplasm and nucleus. Panels A, nuclear stain with DAPI (λex/em= 350/460 nm); panels B, Alexa Fluor CF 488 (λex/em= 490/515 nm); panels C, overlay channels. Images were acquired at 40x magnification and repres entative fields are shown.

[6] = system: β-actin in MDA-MB-231 cells; test: Actin immunofluorescence, MDA-MB-231; assay type: cell-based, human; details: 24 h; compound 1 at its IC50 value, LA 0.1 µM
Description: as §1

[7] = system: Hek-293 cells; test: MTT assay, normal Hek-293; assay type: cell-based, human; details: up to the concentration of 200 μM
[8] = system: NF-κB in MDA-MB-231 cells; test: NF-κB immunofluorescence, MDA-MB-231; assay type: cell-based, human; details: IC50 value, 24 h
Description: as §1

[9] = system: MDA-MB-231 cells; test: TUNEL assay, MDA-MB-231; assay type: cell-based, human; details: IC50, 24 h
Source text: Images are representative of three independent experiments.

[10] = system: β-actin in MCF-7 cells; test: Actin immunofluorescence, MCF-7; assay type: cell-based, human; details: 24 h; compound 6 at its IC50 value, LA 0.1 µM
Description: as §1

[11] = system: cytochrome c in MCF-7 cells; test: Mitochondria staining and cytochrome c detection, MCF-7; assay type: cell-based, human; details: IC50 value, 24 h
Description: as §1

[12] = system: NF-κB in MCF-7 cells; test: NF-κB immunofluorescence, MCF-7; assay type: cell-based, human; details: IC50 value, 24 h
Description: as §1

[13] = system: vimentin in MCF-7 cells; test: Vimentin expression (immunofluorescence), MCF-7; assay type: cell-based, human; details: fluorescence quantification; IC50 value, 24 h
Description: as §1
Protein lysates underwent the SDS-PAGE process, as already defined. Then lysates were resolved on a 7.5% SDS polyacrylamide gel, transferred to a nitrocellulose membrane, and probed with antibodies against vimentin and GAPDH (Santa Cruz Biotechnology, Dallas, TX, USA). […] The images are representative of three independent experiments.

For `Cn1ccn(CC([O-])c2ccccc2)[c]1=[Au+]=[c]1n(C)ccn1CC([O-])c1ccccc1.[Cl-].[Na+].[Na+]` (stereo not shown) [Compound 1], the LogP [1] was 0.079, the “vimentin expression vs CTRL, MCF-10A” value [2] was “not significant” and the IC50 [3] was 29.9 ± 1.1 µM. For the same compound, the “effect on actin polymerization (in words)” value [4] was “inhibiting activity higher that CB but lesser than LA”, the actin polymerization curve, final value ([4]; end of 1 h kinetic read, control about 37.000 RFU) was 17000 RFU and the “NF-κB localization, MCF-10A” value [5] was “localized within the cytoplasm and nucleus”. The “actin organization in MDA-MB-231 cells” value [6] was “altered actin bundles organization”, the “cytotoxicity against the normal Hek-293 cells (in words)” value [7] was “complete lack of cytotoxicity” and the “NF-κB translocation, MDA-MB-231” value [8] was “reduced the translocation of NF-κB from the cytoplasm to the nucleus”. The “apoptosis (TUNEL), MDA-MB-231” value [9] was “induced apoptosis”.

For `CC(=O)[O-].Cn1c(Cl)c(Cl)n(CC(O)c2ccccc2)[c]1=[Au+]=[c]1n(C)c(Cl)c(Cl)n1CC(O)c1ccccc1` (stereo not shown) [Compound 6, Bis [4,5-dichloro-(N-methyl, N’(2-hydroxy-2-phenyl-ethyl)imidazole-2-ylidine]gold(I)] acetate], the LogP [1] was 0.78, the “vimentin expression vs CTRL, MCF-10A” value [2] was “not significant” and the IC50 [3] was 1.2 ± 0.3 µM. For the same compound, the “actin organization in MCF-7 cells” value [10] was “actin bundles appeared thicker and dramatically packed into the cytoplasm”, the “cytochrome c localization, MCF-7” value [11] was “cytochrome c is localized within mitochondria” and the “effect on actin polymerization (in words)” value [4] was “inhibiting activity higher that CB but lesser than LA”. The “NF-κB localization, MCF-10A” value [5] was “localized within the cytoplasm and nucleus”, the “NF-κB translocation, MCF-7” value [12] was “reduced the translocation of NF-κB from the cytoplasm to the nucleus” and the “reduction of vimentin expression with respect to the control, MCF-7” value [13] was “two-fold”.
